“Also recorded” adds a separate entry of the source.

The test system of data set [1] is SAMP8 mice. Description: T-maze acquisition and retention after chronic i.p. administration. It counts as in vivo, mouse. Conditions: for mean trials to first avoidance versus vehicle (learning): day 21. As to the method: T-Maze testing. The T-maze avoidance apparatus, training and testing procedures were as previously described in Example 1. […] Dosing range for i.p. administration (0.2-200 μg) was extrapolated from previous i.c.v. administration data as described in Example 1 above. Respective doses were given once a day over a period of 28 days. Learning and memory was assessed by the T-maze model. Learning evaluations were conducted at three weeks of treatment (day 21), while memory was assessed after one additional week of treatment (day 28). […] At the end of the evaluations mice were decapitated and the brains flash frozen and stored at −80° C. for subsequent analyses.

In data set [2] the test system is SAMP8 mice. Description: T-maze foot-shock avoidance acquisition after acute i.c.v. injection. It is filed as in vivo, mouse. The source says: T-Maze Testing. The T-maze avoidance apparatus training and testing procedures have been previously described, and shown as an effective means to assess learning in SAMP8 mice (Flood and Morley, 1993; Farr et al., 2000). […] Octreotide is a primarily SSTR2 agonist, of the SRIF-1 family, serving as an additional control set. Forty-eight hours prior to testing, the mice were anesthetized with 2,2,2-tribromoethanol, placed in a stereotaxic instrument, and the scalp was deflected. A unilateral hole was drilled 0.5 mm anterior and 1.0 mm to the right of the bregma. […] This time frame is consistent with work by others showing somatostatin administration over 24 hrs decreased Aβ1-42 concentrations in the brain (Saito et al., 2005). […] Twenty-four hours following drug administration mice were evaluated using the T-maze test.
The T-maze consisted of a black plastic alley with a start box at one end and two goal boxes at the other. The start box was separated from the alley by a plastic guillotine door, which prevented movement down the alley until training began. An electrifiable stainless steel rod floor ran throughout the maze to deliver scrambled foot-shock. Mice were trained and tested between 07:00 and 15:00 h. Mice were not permitted to explore the maze prior to training. A block of training trials began when a mouse was placed into the start box. The guillotine door was raised and a buzzer sounded simultaneously; 5 s later foot-shock was applied. The goal box entered on the first trial was designated “incorrect” and the foot-shock was continued until the mouse entered the other goal box, which in all subsequent trials was designated as “correct” for the particular mouse. At the end of the acquisition trial, mice were decapitated and the brains flash frozen and stored at −80° C. for subsequent analyses.

For a further data set, the system named is SSTR4, APP, and NEP. Description: Western blot expression of SSTR4, APP and NEP in brain tissue ex vivo. Also noted: species or system mouse. The method, then: Protein expression of brain tissues was evaluated ex vivo, from flash frozen whole brain tissue following respective behavioral analyses, by Western blot analyses for SSTR4, APP and NEP. Tissues were homogenized in RIPA buffer containing protease inhibitor (Roche) using a 1:10 ratio (0.5 g=5 ml), transferred into tubes and spun at 10,000×g for 20 min (4° C.). The supernatant was taken and a protein assay was used to determine the amount of protein present. Samples (100 μg) were separated using an electrophoretic field on Biorad (Bio-Rad, Hercules, Calif.) Tris HCl gels (10%) at 175 V for 70 min following heating at 95° C. for 5 min. GelCode Blue Stain (Pierce, Rockford, Ill.) was used to confirm appropriate protein loading. The proteins were then transferred to nitrocellulose membranes with 240 mA at for 45 min (4° C.). The membranes were then blocked using 5% nonfat milk-Tris-buffered saline (20 mM Tris base, 137 mM NaCl, pH 7.6) with 0.1% Tween-20 for 4 h and then incubated overnight at 4° C. with primary antibodies (1:1,000-1:2,000 dilution) in PBS-0.5% BSA. Antibodies shown effective: SSTR4 (Sigma-Aldrich), NEP (Millipore, Billerica, Mass.), and APP (Millipore). The membranes were then washed with 5% nonfat milk-Tris-buffered saline buffer before incubation with the respective secondary antibody at a 1:2,000 dilution (in PBS-0.5% BSA) for 60 min at room temperature. Blots were developed using the enhanced chemiluminescence method (ECL+; Amersham Life Science Products; Springfield, Ill.), and protein bands visualized on X-ray film. Optical densities were measured by densitometer (Biorad) and evaluated against respective controls. After each initial protein expression assessment, membranes were then stripped and re-probed with actin (Sigma-Aldrich).
Protein expression in brain tissues was evaluated ex vivo as described above in Example 1.
A general note: Immunoblotting shows a protein as a band on a membrane.

Data set [3] is described as follows: Body weight and behaviour during chronic i.p. dosing. It is filed as in vivo, mouse. As to conditions: SAMP8 mice, i.p. 0.2-200 μg once a day, 28 days.
A further data set deals with APPswe transgenic mice. Description: T-maze avoidance learning acquisition in APPswe transgenic mice after i.c.v. injection. Conditions: 0.2 μg i.c.v. It is filed as in vivo, mouse. The source says: The APPswe transgenic mouse carries a transgene coding for the 695-amino acid isoform of human Alzheimer A R precursor protein. (K. Hsiao et al., 274 Science 99-102, 1996). These mice express high concentrations of the mutant AR , with significant amyloid plaques, and display memory deficits. At 11-13 months of age they show a 14-fold increase in AR (1-42/43) over those at 2-8 months of age. Elevated AR levels are associated with the development of amyloid deposits in frontal, temporal and entorhinal cortex, hippocampus, presubiculum, and cerebellum, with some mice developing the signature cross pattern of deposits seen inhuman AD. […] Thus APPswe transgenic mice are also a good model for studying APP expression, amyloid plaque formation, neuronal decline, and memory loss associated with AD, and for studying drug candidates for treatment or prevention of AD. APPswe (Tg2576) mice, and non-transgenic siblings as controls, were obtained from Taconic (New York). All other materials and methods were as described for Example 1.
AAPswe transgenic mice were administered 0.2 μg of NNC 26-91001.c.v. after a 2 hour fasting period, followed by an additional hour of fasting after administration. Animals were tested using the T-maze model as described above in Example 1.

The subject of the next data set is Aβ42. Description: ELISA analysis of Aβ42 in brain tissue ex vivo. Also noted: species or system mouse. The method, then:
Brain levels of Aβ42 were evaluated ex vivo, from flash frozen whole brain tissue following respective behavioral analyses, using ultra-centrifugation and solid phase extraction methods (Lanz and Schachter, 2006; Zupa-Fernandez et al., 2007), coupled with Enzyme-linked immunosorbent assay (ELISA) analysis. Half of the brain tissue was dedicated to Western blot examinations with remainder used for Aβ42 evaluation. Brain tissue was homogenized and incubated with 1 mL 50 mM NaCl, 0.4% DEA, pH=10, containing protease inhibitor (Roche, Indianapolis, Ind.). Samples were kept on ice for 20 min, followed by sonication at 30% for 30 sec. Samples were then incubated at room temperature (3 h) followed by centrifugation at 355,000×g for 30 min (4° C.). Supernatant was collected for extraction using Oasis HLB 3 cc columns (Waters, Milford, Mass.). Oasis columns were activated with 2 mL methanol (MeOH), followed by 2 mL diH2O. Brain homogenates were loaded in 1 mL increments. Samples were then washed sequentially with 1 mL volumes of 5% and 30% MeOH, then eluted with 1 mL 2% NH4OH in 90% MeOH. Eluted samples were collected and vacuum-centrifuged at 1400 rpm, 60° C. for 90-120 min. Once samples were dried completely, they were stored at −80° C. until assay. Samples were reconstituted and analyzed in duplicate according to ELISA assay directions (Beta-Mark Aβx-42, Covance, Dedham, Mass.) via luminometer (Lumistar Optima, BMG Labtech, Durham, N.C.). Aβ42 levels were calculated from linear-regression curve in pg/ml and then set to gram weight of brain tissue and normalized to respective controls.
Evaluation of Aβ. Brain levels of Aβ42 were evaluated ex vivo as described above in Example 1.
For orientation: ELISA stands for enzyme-linked immunosorbent assay.

The subject of data set [4] is SAMP8 mice. Description: Object-recognition task after i.c.v. injection. It counts as in vivo, mouse. Conditions: 0.2 μg i.c.v., 48 h after injection. As to the method: Object-recognition is a non-spatial memory recognition task, shown to be effective in SAMP8 mice (Bevins and Besheer, 2006; Fontan-Lozano et al., 2008). In this task, treated and control mice are measured as to the difference in time spent with a familiar (or remembered) object and a novel object. Mice received a single optimized dose (0.2 μg) determined from T-maze assessment, against vehicle control (0 μg). Dosing was performed 24 h prior to the initial training period and the recognition task was evaluated 24 h after training (i.e. 48 h after dosing). Mice were habituated to an empty apparatus (55×40×40 cm) for 5 min a day for 3 days prior to entry of the objects. On the day of training two similar objects were placed in the maze. Mice were placed in the maze and allowed to explore the objects for 5 min. In the 24-h retention test, one of the same objects is placed in the maze, as well as a new object in a new location. The difference in percent time spent exploring the new object over the familiar object was then determined. The criteria for exploration were based strictly on active exploration, where the mouse had both forelimbs within a circle of 1.5 cm around the object, with its head oriented toward it, or when touching it with its vibrissae. At the end of the retention trial, mice were decapitated and the brains flash frozen and stored at −80° C. for subsequent analyses.

The mark [5] stands for this setting: 0.2 μg i.c.v., after object-recognition task.

On to `S=C(NCCCc1c[nH]cn1)N(CCc1c[nH]c2ccccc12)Cc1cccc(Cl)c1Cl` [LIU 686-06A], for which the “mean trials to first avoidance versus vehicle (learning)” value in the data set on SAMP8 mice [1] (i.p. 0.2 μg daily) is “significantly lower number of mean trials to first avoidance”. Further, the “mean trials to criterion versus vehicle” value in the data set on SAMP8 mice [1] (i.p. 20 μg daily, day 21 as printed) is “significantly lower number of mean trials to first criterion”.

On to `S=C(NCCCc1c[nH]cn1)NCCCN(Cc1ccc(Cl)c(Cl)c1)c1ccc(Br)cn1` [NNC 26-9100], for which the “mean trials to first avoidance versus NNC 26-9100 alone” value in the data set with SAMP8 mice [2] (0.2 μg i.c.v. co-administered with 1 mM phosphoramidon, p<0.05) is “significant increase in the number of mean trials to first avoidance”; in the data set on SAMP8 mice [2] (0.2 μg i.c.v. co-administered with 10 mM phosphoramidon, p<0.01), “significant increase in the number of mean trials to first avoidance”. In the data set on SAMP8 mice [2] (0.2 μg i.c.v. co-administered with 10 mM phosphoramidon), the “trials to first avoidance versus NNC 26-9100+1 mM phosphoramidon” value was “significantly higher number of trials to first avoidance”. Further, the “learned avoidance (mean trials to first avoidance) compared to vehicle” value with SAMP8 mice [2] (SAMP8 mice, i.c.v., 0.2 μg, T-maze 24 h after injection) is “significant improvement; also recorded: significantly lower number of mean trials to first avoidance”. In the data set on SSTR4, APP, and NEP (0.2 μg i.c.v., +1 mM or +10 mM phosphoramidon), the “SSTR4, APP, or NEP expression, NNC 26-9100 alone, co-administered phosphoramidon, and versus vehicle alone” value is listed as “No changes”. Besides, the “expression of SSTR4, APP, or NEP versus vehicle” value in the data set with SSTR4, APP, and NEP (setting [5]) is “No significant changes”; in the data set with SSTR4, APP, and NEP (chronic i.p., any dose (0.2-200 μg daily), 28 days) it was “No significant changes”. The “expression of SSTR4, APP, or NEP compared to vehicle” value in the data set on SSTR4, APP, and NEP (SAMP8 brain, i.c.v., 0.002-2.0 μg) is listed as “no significant changes”. For the same molecule, the “weight loss or abnormal behaviors” value in data set [3] is listed as “no animals in the study exhibiting weight loss or abnormal behaviors”. Moreover, the “mean trials to first avoidance versus vehicle (learning)” value with SAMP8 mice [1] (i.p. 20 μg daily) and with SAMP8 mice [1] (i.p. 200 μg daily) was “significantly lower number of mean trials to first avoidance” in each case. Further, the “mean trials to criterion versus vehicle (memory)” value in the data set with SAMP8 mice [1] (i.p. 20 μg daily, day 28, p<0.01) is listed as “significantly lower mean trials to criterion”; with SAMP8 mice [1] (i.p. 200 μg daily, day 28, p<0.05) it was “significantly lower mean trials to criterion”. Further, in the data set on APPswe transgenic mice, the avoidance learning acquisition result is reported as “effects in AAPswe transgenic mice similar to those obtained in SAMP8 mice”. The “Aβ42 versus NNC 26-9100 alone group” value in the data set on Aβ42 (0.2 μg i.c.v. + 10 mM phosphoramidon, post-T-maze) is “significant increase”. The Aβ42 versus vehicle result in the data set on Aβ42 (setting [5]) was “no significant change”; in the data set on Aβ42 (chronic i.p. 20 μg daily, 28 days), “significant decrease”; with Aβ42 (chronic i.p., any other dose (0.2-200 μg range)), “no significant changes”. Further, the “decrease in Aβ42 compared to vehicle” value with Aβ42 (SAMP8 brain, post-T-maze, i.c.v., all doses 0.002-2.0 μg) is recorded as approximately 20%. In addition, the “enhancement in recognition memory (time with novel object) versus vehicle” value with SAMP8 mice [4] is reported as “approximately 2 fold”.

For `C[C@@H](O)[C@@H]1NC(=O)[C@H](CCCCN)NC(=O)[C@@H](Cc2c[nH]c3ccccc23)NC(=O)[C@H](Cc2ccccc2)NC(=O)[C@@H](NC(=O)[C@H](N)Cc2ccccc2)CSSC[C@@H](C(=O)N[C@H](CO)[C@@H](C)O)NC1=O` [octreotide, reference compound], the “learned acquisition compared to vehicle” value in the data set with SAMP8 mice [2] (SAMP8 mice, i.c.v., any dose 0.002-2.0 μg) is “no significant effects”.

In the case of `CC(C)C[C@H](NP(=O)(O)O[C@@H]1O[C@@H](C)[C@H](O)[C@@H](O)[C@H]1O)C(=O)N[C@@H](Cc1c[nH]c2ccccc12)C(=O)O` [phosphoramidon, reference compound], the “mean trials to first avoidance, vehicle versus vehicle combined with phosphoramidon” value in the data set with SAMP8 mice [2] (any dose of phosphoramidon (1 or 10 mM), i.c.v.) is “No significant change”. In the data set on Aβ42 (i.c.v., post-T-maze), the “Aβ42 within vehicle groups (vehicle alone, +1 mM or +10 mM phosphoramidon)” value is “No change”.

The record behind these values is patent publication US20120283298A1, “METHODS FOR TREATING MEMORY IMPAIRMENT” (priority 2009, published 2012).
